Experimental data as given in US11279733B2, “Peptide antibiotics” (priority 2017, dated 2022).
In brackets after ≈: the same amount, converted by molar mass. Like-named read-outs stand apart in the source and are kept apart here. Positions of bridges follow the written chain, without caps; N, C: chain ends. Non-standard residues stand in square brackets, D forms with d. Residues, ends and D or L forms follow the SMILES beside them. *: point of attachment. Decanoyl(3R-OH) = CCCCCCC[C@@H](O)CC(=O)*; dBip = N[C@H](Cc1ccc(-c2ccccc2)cc1)C(=O)O; dDab = NCC[C@@H](N)C(=O)O; Dab = NCC[C@H](N)C(=O)O; Dap = NC[C@H](N)C(=O)O

Columns and labels:
in vitro = details: human
Method in brief: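 Fluorescence read-out (excitation 560, emission 590) after a 2 h, 37 °C incubation with 5 μM resazurin, following 24 h compound treatment of cells plated at 4000 per well. CC50 values come from fitting dose–response curves of growth inhibition.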

[1] = In vitro nephrotoxicity, GGT release from primary human kidney cells; type: cell-based; details: pH 7.4
Description: (§1) hPT cells were derived from whole human kidneys procured by the International Institute for the Advancement of Medicine (Edison, N.J., USA). All tissue was scored by a pathologist as normal (i.e., derived from non-cancerous, non-diseased tissue). Cell isolation procedures were based on those originally described by Todd et al. (1996) and modified (Cummings and Lash, 2000; Cummings et al., 2000) with use of sterile conditions (i.e., all instruments and glassware were autoclaved and all buffers were filtered through a 0.2-μm pore-size filter). Renal cortex and outer stripe were cut into slices, washed with sterile PBS, minced, and the pieces were placed in a trypsinization flask filled with 300 ml of sterile, filtered Hanks' buffer, containing 25 mM NaHCO3, 25 mM HEPES, pH 7.4, 0.5 mM EGTA, 0.2% (w/v) bovine serum albumin, 50 μg/ml gentamicin, 1.3 mg/mL collagenase, and 0.59 mg/ml CaCl2), which was filtered prior to use. Whole kidneys were perfused with Wisconsin medium and kept on ice until they arrived at the laboratory, which was usually within 24 h of removal from the donor.
(§2) All buffers were continuously bubbled with 95% O2/5% CO2 and were maintained at 37° C. Minced cortical pieces from whole kidneys were subjected to collagenase digestion for 60 min, after which the supernatant was filtered through a 70-μm mesh filter to remove tissue fragments, centrifuged at 150×g for 7 min, and the pellet resuspended in Dulbecco's Modified Eagle's Medium: Ham's F12 Medium (DMEM/F12; 1/1). Approximately 5 to 7×10^6 cells were obtained per 1 g of human kidney cortical tissue.
(§3) hPT cells were resuspended in 2 mL of DMEM/F12 and diluted to 500 mL with cell culture medium, which was serum-free and hormonally-defined. Composition of this supplemented medium was based on earlier work establishing optimal conditions for primary culture of rat PT cells (Lash et al., 1995). Basal medium was a 1:1 mixture of DMEM/F12. […] Cells were seeded in a volume of 0.5 ml at a density of 50-100 μg protein per cm^2 (0.5-1.0×10^6 cells/ml) on 24-well plates. Cultures were grown at 37° C. in a humidified incubator under an atmosphere of 95% air/5% CO2 at pH 7.4. Cultures were grown to approximately 80%-90% confluence (generally 5-6 days) prior to experiments. Cells were harvested by either scraping the flasks with a Teflon scraper or by brief incubation with Cellstripper (Cellgro, Herndon, Va., USA) (in Ca^2+- and Mg^2+-free Hanks' buffer).
Release of gamm-glutanyltransferase was assessed according to Orlowski, M., Meister, A. 1963. γ-Glutamyl-p-nitroanilide: A new convenient substrate for determination and study of L- and D-γ-glutamyltranspeptidase activities (Biochim. Biophys. Acta 73: 679-681.)
A 2.5 mM substrate Solution was prepared from 67 mg γ-glutamyl-p-nitroanilide+264 mg glycylglycine in 100 mL of 0.05 M Tris, pH 8.2 (50 mM Tris, pH 8.2: 605 mg Tris/HCl per 100 mL).
For the assay in 96-well plates, 6-μL of sample and 0.3 mL substrate solution were added to each well. The absorbance was measured at 410 nm for the appearance of product, p-nitroanilide (molar extinction=8800 M^−1 cm^−1).

[2] = In vitro nephrotoxicity, LDH release from primary human kidney cells; type: cell-based; details: pH 7.4
Description: as §1, §2, §3

A. baumannii ATCC 19606 = details: ATCC 19606
Method in brief: (§4)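 Mid-log cultures grown in Mueller Hinton broth at 37° C were tested by 2-fold broth microdilution at 5×10^5 CFU/mL final. Compounds were dissolved in water and tested over a final range of 32 to 0.015 μg/mL.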

[3] = test system: P. aeruginosa GN_105, PmxR; details: GN 105, PmxR
Method in brief: as §4

[4] = test system: K. pneumoniae ATCC BAA-2146, NDM-1 pos; details: ATCC BAA-2146
Method in brief: as §4

[5] = test system: K. pneumoniae GN_102 PmxR; details: GN 102 PmxR
Method in brief: as §4

[6] = test system: K. pneumoniae GN_106, PmxR; details: GN 106, PmxR
Method in brief: as §4

P. aeruginosa ATCC 27853 = details: ATCC 27853
Method in brief: as §4

K. pneumoniae ATCC 13883 = details: ATCC 13883
Method in brief: as §4

A. baumannii GN_093 PmxR = details: GN 093 PmxR
Method in brief: as §4

[7] = test system: P. aeruginosa GN_043, PmxR; details: polymyxin-resistant; for MIC, P. aeruginosa FADDI-PA070, PmxR: Table 5
Method in brief: as §4

E. coli ATCC 25922 = details: ATCC 25922
Method in brief: as §4

[8] = test system: S. aureus ATCC 25923, MSSA; details: ATCC 25923
Method in brief: as §4

[9] = test system: K. pneumoniae ATCC 700603, MDR; details: ATCC 700603
Method in brief: as §4

Row | SMILES | CC50 [1] [µg/mL] | CC50 [2] [µg/mL] | MIC, A. baumannii ATCC 19606 (A. baumannii ATCC 19606) [µg/mL] | MIC, P. aeruginosa PA9704, PmxR [3] [µg/mL] | MIC, K. pneumoniae ATCC BAA-2146, NDM-1 pos [4] [µg/mL] | MIC, K. pneumoniae Cl Koprana 10065 0661:1, PmxR [5] [µg/mL] | MIC, K. pneumoniae Cl 138-16347-20362, PmxR [6] [µg/mL] | MIC, P. aeruginosa ATCC 27853 (P. aeruginosa ATCC 27853) [µg/mL] | MIC, K. pneumoniae ATCC 13883 (K. pneumoniae ATCC 13883) [µg/mL] | MIC, A. baumannii Cl Ptyela 10073 4512:2, PmxR (A. baumannii GN_093 PmxR) [µg/mL] | MIC, P. aeruginosa FADDI-PA070, PmxR [7] [µg/mL] | MIC, E. coli ATCC 25922 (E. coli ATCC 25922) [µg/mL] | MIC, S. Aureus ATCC 25923, MSSA [8] [µg/mL] | MIC, K. pneumoniae ATCC 700603, MDR [9] [µg/mL] | MIC P. aeruginosa GN_105, PmxR [3] [µg/mL] | MIC K. pneumoniae GN_102 PmxR [5] [µg/mL] | MIC K. pneumoniae GN_106, PmxR [6] [µg/mL] | MIC A. baumannii GN_093 PmxR (A. baumannii GN_093 PmxR) [µg/mL] | other results
1 | CCCCCCC[C@@H](O)CC(=O)N[C@H](CCN)C(=O)N[C@H]1CCNC(=O)[C@H](CC(C)C)NC(=O)[C@H](CCN)NC(=O)[C@H](CN)NC(=O)[C@H](CC(C)C)NC(=O)[C@@H](Cc2ccccc2)NC(=O)[C@H](CCN)NC1=O [compound 990, 3(R)OH-nC9CO-D-Dab-cyc[L-Dab-L-Dab-D-Phe-L-Leu-L-Dap-L-Dab-L-Leu]] ({Decanoyl(3R-OH)}-[dDab][Dab][Dab][dF]L[Dap][Dab]L; lactam 2-C) | > 128 | 87 (≈ 84.4 µM) | 8 (≈ 7.76 µM) | 4 (≈ 3.88 µM) | 4 (≈ 3.88 µM) | 4 (≈ 3.88 µM) | 4 (≈ 3.88 µM) | 2 (≈ 1.94 µM) | 4 (≈ 3.88 µM) | 16 (≈ 15.5 µM) | 2 (≈ 1.94 µM) | 4 (≈ 3.88 µM) | 32 (≈ 31.1 µM) | 4 (≈ 3.88 µM) | – | – | – | – | CC50 at 24 h (in vitro): > 300 µM
2 | CCCCCCC[C@@H](O)CC(=O)N[C@H](CCN)C(=O)N[C@H]1CCNC(=O)[C@H](CC(C)C)NC(=O)[C@H](CCN)NC(=O)[C@H](CCCCN)NC(=O)[C@H](CC(C)C)NC(=O)[C@@H](Cc2ccccc2)NC(=O)[C@H](CCN)NC1=O [compound 992, 3(R)OH-nC9CO-D-Dab-cyc[L-Dab-L-Dab-D-Phe-L-Leu-L-Lys-L-Dab-L-Leu]] ({Decanoyl(3R-OH)}-[dDab][Dab][Dab][dF]LK[Dab]L; lactam 2-C) | > 128 | 114 (≈ 106 µM) | 2 (≈ 1.86 µM) | 4 (≈ 3.73 µM) | 2 (≈ 1.86 µM) | 4 (≈ 3.73 µM) | 4 (≈ 3.73 µM) | 2 (≈ 1.86 µM) | 2 (≈ 1.86 µM) | 8 (≈ 7.46 µM) | 2 (≈ 1.86 µM) | 2 (≈ 1.86 µM) | 16 (≈ 14.9 µM) | 2 (≈ 1.86 µM) | – | – | – | – | –
3 | CCCCCCC[C@@H](O)CC(=O)N[C@H](CCN)C(=O)N[C@H]1CCNC(=O)[C@H](CC(C)C)NC(=O)[C@H](CN)NC(=O)[C@H](CCN)NC(=O)[C@H](CC(C)C)NC(=O)[C@@H](Cc2ccc(-c3ccccc3)cc2)NC(=O)[C@H](CCN)NC1=O [compound 5383, 3(R)OH-nC9CO-D-Dab-cyc[L-Dab-L-Dab-D-Bip-L-Leu-L-Dab-L-Dap-L-Leu]] ({Decanoyl(3R-OH)}-[dDab][Dab][Dab][dBip]L[Dab][Dap]L; lactam 2-C) | > 128 | > 128 | – | – | – | – | – | – | – | – | – | – | – | – | 2 (≈ 1.81 µM) | 8 (≈ 7.23 µM) | 8 (≈ 7.23 µM) | 4 (≈ 3.62 µM) | MIC A. baumannii ATCC 19606 (A. baumannii ATCC 19606): 4 µg/mL (≈ 3.62 µM); MIC K. pneumoniae ATCC BAA-2146, NDM-1 pos [4]: 4 µg/mL (≈ 3.62 µM); MIC P. aeruginosa ATCC 27853 (P. aeruginosa ATCC 27853): 2 µg/mL (≈ 1.81 µM); MIC K. pneumoniae ATCC 13883 (K. pneumoniae ATCC 13883): 4 µg/mL (≈ 3.62 µM); MIC P. aeruginosa GN_043, PmxR [7]: 2 µg/mL (≈ 1.81 µM); MIC E. coli ATCC 25922 (E. coli ATCC 25922): 4 µg/mL (≈ 3.62 µM); MIC S. aureus ATCC 25923, MSSA [8]: 2 µg/mL (≈ 1.81 µM); MIC K. pneumoniae ATCC 700603, MDR [9]: 4 µg/mL (≈ 3.62 µM)
4 | CCCCCCC[C@@H](O)CC(=O)N[C@H](CCN)C(=O)N[C@H]1CCNC(=O)[C@H](CC(C)C)NC(=O)[C@H](CCN)NC(=O)[C@H](CCNC(=O)[C@@H](N)CCCNC(=N)N)NC(=O)[C@H](CC(C)C)NC(=O)[C@@H](Cc2ccccc2)NC(=O)[C@H](CCN)NC1=O [compound 6654, 3(R)OH-nC9CO-D-Dab-cyc[L-Dab-L-Dab-D-Phe-L-Leu-L-Dab(L-Arg)-L-Dab-L-Leu]] ({Decanoyl(3R-OH)}-[dDab][Dab][Dab][dF]L[Dab](Arg)[Dab]L; lactam 2-C) | > 128 | > 128 | 8 (≈ 6.66 µM) | 2 (≈ 1.67 µM) | 8 (≈ 6.66 µM) | 8 (≈ 6.66 µM) | 16 (≈ 13.3 µM) | 4 (≈ 3.33 µM) | 4 (≈ 3.33 µM) | 8 (≈ 6.66 µM) | 2 (≈ 1.67 µM) | 4 (≈ 3.33 µM) | 16 (≈ 13.3 µM) | 4 (≈ 3.33 µM) | – | – | – | – | –
5 | CCCCCCC[C@@H](O)CC(=O)N[C@@H](CCN)C(=O)N[C@H]1CCNC(=O)[C@H](CC(C)C)NC(=O)[C@H](CCN)NC(=O)[C@H](CCN)NC(=O)[C@H](CC(C)C)NC(=O)[C@@H](Cc2ccccc2)NC(=O)[C@H](CCN)NC1=O [compound 8638, 3(R)OH-nC9CO-L-Dab-cyc[L-Dab-L-DAB-D-Phe-L-Leu-L-Dab-L-Dab-L-Leu]] ({Decanoyl(3R-OH)}-[Dab][Dab][Dab][dF]L[Dab][Dab]L; lactam 2-C) | > 128 | > 128 | 32 (≈ 30.6 µM) | – | 8 (≈ 7.66 µM) | – | – | 1 (≈ 0.958 µM) | 4 (≈ 3.83 µM) | – | – | 2 (≈ 1.92 µM) | – | 8 (≈ 7.66 µM) | 2 (≈ 1.92 µM) | 4 (≈ 3.83 µM) | 4 (≈ 3.83 µM) | 32 (≈ 30.6 µM) | MIC P. aeruginosa GN_043, PmxR ([7]; Table 6): 8 µg/mL (≈ 7.66 µM); MIC, S. aureus ATCC 25923, MSSA [8]: 16 µg/mL (≈ 15.3 µM)
